Assay results: PubChem BioAssay (NCI)
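Each compound was tested at five concentrations against cells in 96-well plates for 48 hours. Abbreviation: GI50, concentration required for 50% inhibition of growth. TGI denotes the concentration required for complete inhibition of growth.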

Assays:
Experiment in all cases: inhibition of tumour cell growth, NCI panel, 48 h
[1] = test system: A549 NSCLC
[2] = test system: EKVX NSCLC
[3] = test system: K-562 leukemia
[4] = test system: MALME-3M melanoma
[5] = test system: MOLT-4 leukemia
[6] = test system: NCI-H460 lung
[7] = test system: OVCAR-8 ovarian
[8] = test system: SNB-19 CNS
[9] = test system: SR leukemia
[10] = test system: TK-10 renal

Compound | TGI [1] [µM] | TGI [2] [µM] | TGI [3] [µM] | TGI [4] [µM] | TGI [5] [µM] | TGI [6] [µM] | TGI [7] [µM] | TGI [8] [µM] | TGI [9] [µM] | TGI [10] [µM] | GI50 [2] [µM] | GI50 [3] [µM] | GI50 [4] [µM] | GI50 [5] [µM] | GI50 [6] [µM] | GI50 [7] [µM] | GI50 [8] [µM] | GI50 [9] [µM] | GI50 [10] [µM] | GI50 [1] [µM]
COc1cc2c(cc1OC)C(C(c1ccccc1)c1ccccc1)N(C)CC2 (configuration not stated) | > 100 | > 100 | > 100 | 56.2 | > 100 | > 100 | > 100 | > 100 | – | – | – | – | – | – | – | – | – | – | – | –
O=C1CCC(c2ccccc2)=NN1c1nsc2ccccc12 | > 100 | > 100 | > 100 | – | > 100 | > 100 | > 100 | > 100 | > 100 | > 100 | – | – | – | – | – | – | – | – | – | –
COc1cnc2c(c1)C(=O)c1c-2n(CCCN2CCOCC2)c(=O)c2cc(Cl)ccc12 | – | > 100 | > 100 | > 100 | > 100 | > 100 | > 100 | > 100 | > 100 | > 100 | > 100 | 0.525 | > 100 | 0.267 | 0.0701 | 0.578 | 0.31 | 0.0797 | > 100 | –
O=c1oc2cc(O)ccc2c(O)c1C(c1ccccc1)c1c(O)c2ccc(O)cc2oc1=O | > 100 | > 100 | > 100 | > 100 | > 100 | > 100 | > 100 | – | > 100 | > 100 | – | – | – | – | – | – | – | – | – | –
C[n+]1c(/C=C/c2c(O)ccc3ccccc23)ccc2ccccc21 | 16.1 | 12.9 | 13.4 | 12.7 | 23.4 | 14.5 | 14.9 | 14.8 | 3.31 | 11.7 | 4.72 | 2.22 | 5.3 | 7.01 | 6.32 | 5.2 | 6.56 | 1.21 | 5.49 | 7.76
COc1cccc(N2C(Cl)C(=O)C2c2c[nH]c3ccccc23)c1 (configuration not stated) | > 100 | > 100 | > 100 | > 100 | > 100 | > 100 | > 100 | > 100 | > 100 | > 100 | – | – | – | – | – | – | – | – | – | –
C[N+](C)([O-])CCOc1cc2c(c3ccccc13)-c1ccccc1C2=O | 54.6 | 64.7 | > 95.2 | 28.9 | > 35.3 | 43.2 | > 93.1 | > 55.1 | – | – | – | – | – | – | – | – | – | – | – | –
O=C1CC2(CCC(O)(c3ccc4ccccc4c3)C(C(=O)c3ccc4ccccc4c3)C2)C(=O)c2ccccc2N1 (configuration not stated) | > 100 | > 100 | > 100 | > 100 | > 100 | > 100 | > 100 | > 100 | > 100 | > 100 | – | – | – | – | – | – | – | – | – | –
